The subject of the assay is BDF1 mice, P388 leukemia ip, median survival T/C. Kind of assay: NCI In Vivo Anticancer Drug Screen. Data for tumor model P388 Leukemia (intraperitoneal) in B6D2F1 (BDF1) mice. The note with it: endpoint: median survival time, higher = longer survival. The essentials:
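Transplantable tumour in mice; compound vs vehicle dosing; survival scored; ratio of treated to control reported.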

The mark [1] stands for this setting: dose: 6.25 mg/kg/injection, schedule: Q01DX009 (ip), vehicle: saline with Tween-80.
The mark [2] stands for this setting: dose: 12.5 mg/kg/injection, schedule: Q01DX009 (ip), vehicle: saline with Tween-80.
Setting [3] is: dose: 3.13 mg/kg/injection, schedule: Q01DX009 (ip), vehicle: saline with Tween-80.
[4] abbreviates: dose: 25.0 mg/kg/injection, schedule: Q01DX009 (ip), vehicle: saline with Tween-80.
Where [5] appears, read: dose: 100.0 mg/kg/injection, schedule: Q04DX003 (ip), vehicle: saline.
Where [6] appears, read: dose: 200.0 mg/kg/injection, schedule: Q04DX003 (ip), vehicle: saline.
[7] abbreviates: dose: 400.0 mg/kg/injection, schedule: Q04DX003 (ip), vehicle: saline.
The mark [8] stands for this setting: dose: 50.0 mg/kg/injection, schedule: Q01DX009 (ip), vehicle: saline with Tween-80.
Setting [9] is: dose: 100.0 mg/kg/injection, schedule: Q01DX009 (ip), vehicle: saline with Tween-80.
Where [10] appears, read: dose: 200.0 mg/kg/injection, schedule: Q01DX009 (ip), vehicle: saline with Tween-80.
Setting [11] is: dose: 100.0 mg/kg/injection, schedule: Q04DX003 (ip), vehicle: saline with Tween-80.
The mark [12] stands for this setting: dose: 200.0 mg/kg/injection, schedule: Q04DX003 (ip), vehicle: saline with Tween-80.
Setting [13] is: dose: 400.0 mg/kg/injection, schedule: Q04DX003 (ip), vehicle: saline with Tween-80.
[14] abbreviates: dose: 400.0 mg/kg/injection, schedule: Q01DX009 (ip), vehicle: saline with Tween-80.

Molecules are shown by their SMILES. Values joined by “and” are separate entries in the source; they are usually repeats but may differ in a detail not shown here. Identical values can stand only once. Inconclusive results and toxic doses are left out.

As to `CCCCCCc1nc2nc(Cl)c(Cl)nc2[nH]1`, the T/C (dose: 0.78 mg/kg/injection, schedule: Q01DX009 (ip), vehicle: saline with Tween-80) was 100 % of control; the T/C (dose: 1.56 mg/kg/injection, schedule: Q01DX009 (ip), vehicle: saline with Tween-80) is 89 % of control; the T/C (dose: 3.12 mg/kg/injection, schedule: Q01DX009 (ip), vehicle: saline with Tween-80) was 92 % of control; the T/C under setting [1] is 92 % of control; the T/C under setting [2] was 95 % of control.
As for `CC(/C=C/C(O)=C1/C(=O)CNC1=O)=C\[C@@H](C)[C@H]1O[C@@]2(C)O[C@H](C(=O)[C@@H]3O[C@@]32C)[C@@H]1C`, the T/C reads like this: under setting [3], 108 % of control; under setting [1], 105 % of control; under setting [2], 103 % of control; under setting [4], 100 % of control.
As to `C1CCCCCC(NC2=NCCO2)CCCCC1`, the T/C is, setting by setting: (dose: 3.13 mg/kg/injection, schedule: Q04DX003 (ip), vehicle: saline with Tween-80) 95 % of control; (dose: 6.25 mg/kg/injection, schedule: Q04DX003 (ip), vehicle: saline with Tween-80) 95 % of control; (dose: 12.5 mg/kg/injection, schedule: Q04DX003 (ip), vehicle: saline with Tween-80) 108 % of control; (dose: 25.0 mg/kg/injection, schedule: Q04DX003 (ip), vehicle: saline with Tween-80) 90 % of control; (dose: 50.0 mg/kg/injection, schedule: Q04DX003 (ip), vehicle: saline with Tween-80) 90 % of control.
`CCN1C(=O)CSC1=S`: the T/C was 109 % of control (dose: 62.5 mg/kg/injection, schedule: Q01DX010 (ip), vehicle: saline); 109 % of control (dose: 125.0 mg/kg/injection, schedule: Q01DX010 (ip), vehicle: saline); 90 % of control (dose: 250.0 mg/kg/injection, schedule: Q01DX010 (ip), vehicle: saline).
`S=P(N1CC1)(N1CC1)N1CC1`: the T/C by setting is: (dose: 0.19 mg/kg/injection, schedule: Q01DX009 (ip), vehicle: saline) 114 % of control; (dose: 0.75 mg/kg/injection, schedule: Q01DX010 (ip), vehicle: saline) 90 % of control; (dose: 1.0 mg/kg/injection, schedule: Q01DX001 (oral), vehicle: saline) 109 % of control; (dose: 1.5 mg/kg/injection, schedule: Q01DX009 (ip), vehicle: saline) 121 % of control; (dose: 1.5 mg/kg/injection, schedule: Q01DX010 (ip), vehicle: saline) 90 % of control and 109 % of control; (dose: 3.0 mg/kg/injection, schedule: Q01DX009 (ip), vehicle: saline) 112 % of control. Moreover, the T/C is, setting by setting: (dose: 6.0 mg/kg/injection, schedule: Q01DX009 (ip), vehicle: saline) 91 % of control and 93 % of control and 206 % of control; (dose: 6.0 mg/kg/injection, schedule: Q01DX010 (ip), vehicle: saline) 109 % of control and 110 % of control; (dose: 12.0 mg/kg/injection, schedule: Q01DX009 (ip), vehicle: saline) 111 % of control.
For the molecule `COC(=O)C1C2CCc3cc(OC)ccc3C2CC(=O)C1(C)C(=O)OC` (stereo not drawn), the T/C by setting is: (dose: 100.0 mg/kg/injection, schedule: Q04DX003 (sc), vehicle: steriod suspending solution) 109 % of control; (dose: 200.0 mg/kg/injection, schedule: Q04DX003 (sc), vehicle: steriod suspending solution) 90 % of control; (dose: 400.0 mg/kg/injection, schedule: Q04DX003 (sc), vehicle: steriod suspending solution) 95 % of control.
For the molecule `CC(=O)N1c2ccccc2C23CCN4CC5=CCOC(O)C(C5CC42)C13` (stereo not drawn), under “dose: 30.0 mg/kg/injection, schedule: Q01DX009 (ip), vehicle: saline”, the T/C is 152 % of control.
In the case of `C=C(C)C(=O)O[C@H]1[C@H]2[C@H](OC(=O)[C@H]2C)[C@H](O)[C@@H](C)[C@@H]2C=CC(=O)[C@]21C`, the T/C runs as follows: (dose: 3.13 mg/kg/injection, schedule: Q01DX009 (ip), vehicle: saline) 102 % of control; (dose: 6.25 mg/kg/injection, schedule: Q01DX009 (ip), vehicle: saline) 110 % of control; (dose: 25.0 mg/kg/injection, schedule: Q01DX009 (ip), vehicle: saline) 161 % of control.
Consider `COC1=C(C)C(=O)C2=C(C1=O)C1C3CC4=C(C(=O)C(OC)=C(C)C4=O)C(CNC(=O)C(C)=O)N3C(C#N)C(C2)N1C` (stereo not drawn), for which the T/C is 151 % of control (dose: 0.31 mg/kg/injection, schedule: Q01DX009 (ip), vehicle: Klucel (hydroxypropylcellulose) (HPC)); 183 % of control (dose: 0.62 mg/kg/injection, schedule: Q01DX009 (ip), vehicle: Klucel (hydroxypropylcellulose) (HPC)); 159 % of control (dose: 1.25 mg/kg/injection, schedule: Q01DX009 (ip), vehicle: Klucel (hydroxypropylcellulose) (HPC)).
With `O=C(/C=C/c1cccc([N+](=O)[O-])c1)NCCBr`, the T/C is, setting by setting: under setting [5], 90 % of control; under setting [6], 100 % of control; under setting [7], 100 % of control.
In the case of `O=CC1CO1` (stereo not drawn), the T/C is 150 % of control (dose: 33.0 mg/kg/injection, schedule: Q01DX009 (ip), vehicle: saline sonified) and 116 % of control (dose: 33.0 mg/kg/injection, schedule: Q01DX009 (ip), vehicle: saline).
On to `N#CCCNCCC#N`, for which the T/C by setting is: (dose: 50.0 mg/kg/injection, schedule: Q01DX009 (ip), vehicle: saline) 91 % of control; (dose: 100.0 mg/kg/injection, schedule: Q01DX009 (ip), vehicle: saline) 108 % of control; under setting [5], 105 % of control; (dose: 200.0 mg/kg/injection, schedule: Q01DX009 (ip), vehicle: saline) 104 % of control; under setting [6], 105 % of control.
With `O=C(C[n+]1ccccc1)N/N=C/c1ccc([N+](=O)[O-])s1`, the T/C (dose: 12.5 mg/kg/injection, schedule: Q01DX009 (ip), vehicle: water) is 114 % of control; the T/C (dose: 25.0 mg/kg/injection, schedule: Q04DX003 (ip), vehicle: water) was 90 % of control; the T/C (dose: 50.0 mg/kg/injection, schedule: Q04DX003 (ip), vehicle: water) is 104 % of control.
For the molecule `COc1cc(C2NC(=O)C(C#N)=C(Nc3cccc(C)c3)S2)ccc1O` (stereo not drawn), the T/C is 101 % of control under setting [8], 114 % of control under setting [9] and 119 % of control under setting [10].
Regarding `O=C1C(Cl)=C(Cl)C(=O)C2CC=CCC12` (stereo not drawn), the T/C (dose: 3.13 mg/kg/injection, schedule: Q01DX001 (ip), vehicle: saline with Tween-80) is 95 % of control and the T/C (dose: 6.25 mg/kg/injection, schedule: Q01DX001 (ip), vehicle: saline with Tween-80) was 114 % of control.
As to `Nc1c(Cl)cc(S(N)(=O)=O)cc1Cl`, the T/C is, setting by setting: under setting [9], 86 % of control; under setting [11], 104 % of control; under setting [10], 90 % of control; under setting [12], 104 % of control; under setting [13], 100 % of control.
With `Clc1ccc(C[P+](c2ccccc2)(c2ccccc2)c2ccccc2)c(Cl)c1`, the T/C was 120 % of control (dose: 1.4 mg/kg/injection, schedule: Q01DX009 (ip), vehicle: saline) and 115 % of control (dose: 7.5 mg/kg/injection, schedule: Q01DX009 (ip), vehicle: saline).
As for `OCCN1CCNC1=S`, the T/C is, setting by setting: under setting [5], 95 % of control; under setting [6], 91 % of control; under setting [7], 91 % of control.
As for `CCNc1nc2ncnc(NCC)c2[nH]1`, the T/C runs as follows: under setting [3], 94 % of control; under setting [1], 103 % of control; under setting [2], 100 % of control; under setting [4], 101 % of control.
With `CN(/N=N/N(C)c1ccccc1)c1ccccc1`, the T/C is 110 % of control (dose: 100.0 mg/kg/injection, schedule: Q04DX003 (ip), vehicle: saline sonified); 120 % of control under setting [10]; 110 % of control (dose: 200.0 mg/kg/injection, schedule: Q04DX003 (ip), vehicle: saline sonified); 110 % of control under setting [14]; 100 % of control (dose: 400.0 mg/kg/injection, schedule: Q04DX003 (ip), vehicle: saline sonified).
For the molecule `CS(=O)(=O)OCCN(Cc1ccc(OS(C)(=O)=O)cc1)S(C)(=O)=O`, the T/C runs as follows: under setting [8], 102 % of control; under setting [9], 103 % of control; under setting [11], 107 % of control; under setting [10], 110 % of control; under setting [12], 109 % of control; under setting [14], 94 % of control. Under setting [13], the T/C is 111 % of control.
For the molecule `O=C(O)c1c(Cl)cc(Cl)c(-c2c(Cl)cc(Cl)c(C(=O)O)c2Cl)c1Cl`, the T/C under setting [9] was 112 % of control, the T/C under setting [10] is 108 % of control and the T/C under setting [14] was 108 % of control.

For the origin of these results see PubChem BioAssay AID328 (DTP/NCI, 2004).
